≈ marks a conversion by molar mass, not a printed value.
Key:
[1] = DPPH radical scavenging assay; format: biochemical; conditions: for IC50 (DPPH scavenging): antioxidant activity
Protocol: The studied Cu(II) complexes and the free ligands were assessed for their antioxidant activity levels using an α,α-diphenyl-β-picrylhydrazyl (DPPH) scavenging assay, and the results are given in Table 7. […] The results indicated better antioxidant activity for DMAT than for DMOHT, indicating the effect of the substituent at the phenyl moiety on the antioxidant activity level of the free ligand. […] On the other hand, the Cu(II) complexes have improved levels of antioxidant activity compared to the free ligands.
Method S3 DPPH Radical Scavenging Activity:
Freshly prepared (0.004 %w/v) methanol solution of 2,2-diphenyl-1-pi crylhydrazyl (DPPH) radical was prepared and stored at 10 °C in dark place. A methanolic solution of the test compound was prepared using the same procedure. A 40 uL aliquot of the methanol solution was added to 3mL of DPPH solution. Absorbance measurements were recorded immediately with a UV-visible spectrophotometer (Milton Roy, Spectronic 1201). The decrease in absorbance at 515 nm was determined continuously, with data being recorded at 1 min intervals until the absorbance stabilized (16 min). The absorbance of the DPPH radical without antioxidant (control) and the reference compound ascorbic acid were also measured.
All the determinations were performed in three replicates and averaged. The percentage inhibition (PI) of the DPPH radical was calculated according to the […]
PI = [{(AC- AT)/ AC} x 100] (1)
Where AC = Absorbance of the control at t = 0 min and AT = absorbance of the sample+DPPH at t = 16 min. The 50% inhibitory concentration (IC50), the concentration required t o inhibit DPPH radical by 50%, was estimated from graphic plots of the dose respons e curve.

[2] = system: lung carcinoma A-549 cell line; test: Anticancer activity, MTT viability assay; format: cell-based; conditions: for SI = CC50/IC50: CC50 (MRC-5) / IC50 (A-549); for Inhibitory % / Viability %: Table S8
Protocol: The studied compounds were examined for their anticancer activity against the lung carcinoma A-549 cell line.
(§1) Method S4 Evaluation of Cytotoxic activity
(§2) The cells were propagated in Dulbecco’s modified Eagle’s medium (DMEM) supplemented with 10% heat-inactivated fetal bovine serum, 1 % L-glutamine, HEPES buffer and 50µg/mL Gentamycin. All cells were maintained at 37 °C in a humidified atmosphere with 5% CO2 and were subcultured tw o times a week.
(§3) Cytotoxicity evaluation using viability assay
(§4) For cytotoxicity assay, the cells were seeded in 96-well plate at a cell concentration of 1×10^4 cells per well in 100µl of growth medium. Fresh medium containing different concentrations of the test sample was added after 24 h of seeding. Serial two-fold dilutions of the tested chemical compound were added to confluent cell monolayers dispensed into 96-well, flat-bottomed microtiter plates (Falcon, NJ, USA) using a multichannel pipette. The microtiter plates were incubated at 37 °C in a humidified incubator with 5% CO2 for a period of 24 h. Three wells were used for each concentration of the test sample. Control cells were incubated without test sample and with or without DMSO. The little percentage of DMSO present in the […]
(§5) cells for at 37°C, for 24 h, the viabl e cells yield was determined by the MTT test.
(§6) Briefly, the media was removed from the 96 well plate and replaced with 100 µL of fresh culture DMEM m edium without phenol red then 10 µL of the 12 mM MTT stock solution (5 mg of MTT in 1 mL of PBS) to each well including the untreated controls. The 96 well plates were then incubated at 37°C and 5% CO2 for 4 hours. An 85 µL aliquot of the media was removed from t he wells, and 50 µL of DMSO was added to each well and mixed thoroughly with the pipette and incubated at 37°C for 10 min. Then, the optical density was measured at 590 nm with the microplate reader (SunRise, TECAN, Inc, USA) to determine the number of viable cells and the percentage of viability was calculat ed as [(ODt/ODc)]x100% where ODt i s the mean optical density of wells treated with the tested s ample and ODc is the mean optical density of untreated cells. The relation between surviving cells and drug concentration is plotted to get the survival curve of each tumor cell line after treatment with the specified compound. The 50% inhibitory concentration (IC50), the concentration required to cause t oxic effects in 50% of intact cells, was estimated from graphic plots of the dose response curve for each conc. using Graphpad Prism software (San Diego, […]

[3] = system: normal human lung fibroblast MRC-5 cells; test: Cytotoxic activity on normal cells, MTT viability assay; format: cell-based; conditions: for Inhibitory % / Viability %: Table S13
Protocol: In this regard, the selectivity index (SI) was calculated as the ratio of cytotoxic effect on the normal cell line to the cytotoxic effect on the cancer cell line.
as §1, §2, §3, §4, §5, §6

SMILES: CC(=NNc1nc(N2CCOCC2)nc(N2CCOCC2)n1)c1ccccc1O [DMOHT, 2-(1-(2-(4,6-dimorpholino-1,3,5-triazin-2-yl)hydrazono)ethyl)phenol]
- DPPH Scavenging % ([1]; Conc. 2.5 μg/mL): 5.73%
- DPPH Scavenging % ([1]; Conc. 5 μg/mL): 10.48%
- DPPH Scavenging % ([1]; Conc. 10 μg/mL): 19.87%
- DPPH Scavenging % ([1]; Conc. 20 μg/mL): 31.95%
- DPPH Scavenging % ([1]; Conc. 40 μg/mL): 47.09%
- DPPH Scavenging % ([1]; Conc. 80 μg/mL): 61.32%
- DPPH Scavenging % ([1]; Conc. 160 μg/mL): 73.64%
- DPPH Scavenging % ([1]; Conc. 320 μg/mL): 84.93%
- DPPH Scavenging % ([1]; Conc. 640 μg/mL): 88.54%
- DPPH Scavenging % ([1]; Conc. 1280 μg/mL): 93.87%
- IC50 (DPPH scavenging) [1]: 48.2 ± 1.08 µg/mL (≈ 121 µM)
- SI = CC50/IC50 [2]: 1.77
- viability at 2.5 µM ([2]; Homo sapiens, A549, A-549, sample conc. 2.5 µM, Table S7): 100%
- inhibition at 2.5 µM ([2]; Homo sapiens, A549, A-549, sample conc. 2.5 µM, Table S7, read-out: Inhibitory %): 0%
- viability at 5 µM ([2]; Homo sapiens, A549, A-549, sample conc. 5.0 µM, Table S7): 100%
- inhibition at 5 µM ([2]; Homo sapiens, A549, A-549, sample conc. 5.0 µM, Table S7, read-out: Inhibitory %): 0%
- viability at 9.8 µM ([2]; Homo sapiens, A549, A-549, sample conc. 9.8 µM, Table S7): 100%
- inhibition at 9.8 µM ([2]; Homo sapiens, A549, A-549, sample conc. 9.8 µM, Table S7, read-out: Inhibitory %): 0%
- viability at 19.5 µM ([2]; Homo sapiens, A549, A-549, sample conc. 19.5 µM, Table S7): 100%
- inhibition at 19.5 µM ([2]; Homo sapiens, A549, A-549, sample conc. 19.5 µM, Table S7, read-out: Inhibitory %): 0%
- viability at 39.1 µM ([2]; Homo sapiens, A549, A-549, sample conc. 39.1 µM, Table S7): 100%
- inhibition at 39.1 µM ([2]; Homo sapiens, A549, A-549, sample conc. 39.1 µM, Table S7, read-out: Inhibitory %): 0%
- viability at 78.2 µM ([2]; Homo sapiens, A549, A-549, sample conc. 78.2 µM, Table S7): 98.2%
- inhibition at 78.2 µM ([2]; Homo sapiens, A549, A-549, sample conc. 78.2 µM, Table S7, read-out: Inhibitory %): 1.75%
- viability at 156.5 µM ([2]; Homo sapiens, A549, A-549, sample conc. 156.5 µM, Table S7): 90.7%
- inhibition at 156.5 µM ([2]; Homo sapiens, A549, A-549, sample conc. 156.5 µM, Table S7, read-out: Inhibitory %): 9.33%
- viability at 312.9 µM ([2]; Homo sapiens, A549, A-549, sample conc. 312.9 µM, Table S7): 75.1%
- inhibition at 312.9 µM ([2]; Homo sapiens, A549, A-549, sample conc. 312.9 µM, Table S7, read-out: Inhibitory %): 24.9%
- viability at 625.8 µM ([2]; Homo sapiens, A549, A-549, sample conc. 625.8 µM, Table S7): 43.9%
- inhibition at 625.8 µM ([2]; Homo sapiens, A549, A-549, sample conc. 625.8 µM, Table S7, read-out: Inhibitory %): 56.1%
- viability at 1251.7 µM ([2]; Homo sapiens, A549, A-549, sample conc. 1251.7 µM, Table S7): 21.5%
- inhibition at 1251.7 µM ([2]; Homo sapiens, A549, A-549, sample conc. 1251.7 µM, Table S7, read-out: Inhibitory %): 78.5%
- IC50 ([2]; Homo sapiens, A549, A-549 cells, 24 h, MTT): 565 µM
- inhibition at 2.5 µM ([3]; Homo sapiens, MRC5, MRC-5, sample conc. 2.5 µM, Table S12, read-out: Inhibitory %): 0%
- inhibition at 5 µM ([3]; Homo sapiens, MRC5, MRC-5, sample conc. 5.0 µM, Table S12, read-out: Inhibitory %): 0%
- inhibition at 9.8 µM ([3]; Homo sapiens, MRC5, MRC-5, sample conc. 9.8 µM, Table S12, read-out: Inhibitory %): 0%
- inhibition at 19.5 µM ([3]; Homo sapiens, MRC5, MRC-5, sample conc. 19.5 µM, Table S12, read-out: Inhibitory %): 0%
- inhibition at 39.1 µM ([3]; Homo sapiens, MRC5, MRC-5, sample conc. 39.1 µM, Table S12, read-out: Inhibitory %): 0%
- inhibition at 78.2 µM ([3]; Homo sapiens, MRC5, MRC-5, sample conc. 78.2 µM, Table S12, read-out: Inhibitory %): 0%
- inhibition at 156.5 µM ([3]; Homo sapiens, MRC5, MRC-5, sample conc. 156.5 µM, Table S12, read-out: Inhibitory %): 2.14%
- inhibition at 312.9 µM ([3]; Homo sapiens, MRC5, MRC-5, sample conc. 312.9 µM, Table S12, read-out: Inhibitory %): 10.4%
- inhibition at 625.8 µM ([3]; Homo sapiens, MRC5, MRC-5, sample conc. 625.8 µM, Table S12, read-out: Inhibitory %): 32.4%
- inhibition at 1251.7 µM ([3]; Homo sapiens, MRC5, MRC-5, sample conc. 1251.7 µM, Table S12, read-out: Inhibitory %): 61.8%

SMILES: CC(=NNc1nc(N2CCOCC2)nc(N2CCOCC2)n1)c1ccccc1[O-].CC(=O)[O-].[Cu+2] [Complex 2, [Cu(DMOT)(CH3COO)]]
- DPPH Scavenging % ([1]; Conc. 2.5 μg/mL): 9.39%
- DPPH Scavenging % ([1]; Conc. 5 μg/mL): 17.66%
- DPPH Scavenging % ([1]; Conc. 10 μg/mL): 36.52%
- DPPH Scavenging % ([1]; Conc. 20 μg/mL): 49.08%
- DPPH Scavenging % ([1]; Conc. 40 μg/mL): 67.84%
- DPPH Scavenging % ([1]; Conc. 80 μg/mL): 78.62%
- DPPH Scavenging % ([1]; Conc. 160 μg/mL): 83.14%
- DPPH Scavenging % ([1]; Conc. 320 μg/mL): 88.03%
- DPPH Scavenging % ([1]; Conc. 640 μg/mL): 92.15%
- DPPH Scavenging % ([1]; Conc. 1280 μg/mL): 94.54%
- IC50 (DPPH scavenging) [1]: 20.93 ± 0.91 µg/mL
- Inhibitory % ([2]; A-549, sample conc. 1.9 µM): 0%
- Viability % ([2]; A-549, sample conc. 1.9 µM): 100%
- Inhibitory % ([2]; A-549, sample conc. 3.8 µM): 2.84%
- Viability % ([2]; A-549, sample conc. 3.8 µM): 97.16%
- Inhibitory % ([2]; A-549, sample conc. 7.5 µM): 10.59%
- Viability % ([2]; A-549, sample conc. 7.5 µM): 89.41%
- Inhibitory % ([2]; A-549, sample conc. 15.0 µM): 21.88%
- Viability % ([2]; A-549, sample conc. 15.0 µM): 78.12%
- Inhibitory % ([2]; A-549, sample conc. 29.9 µM): 40.57%
- Viability % ([2]; A-549, sample conc. 29.9 µM): 59.43%
- Inhibitory % ([2]; A-549, sample conc. 60.0 µM): 58.63%
- Viability % ([2]; A-549, sample conc. 60.0 µM): 41.37%
- Inhibitory % ([2]; A-549, sample conc. 120.0 µM): 71.3%
- Viability % ([2]; A-549, sample conc. 120.0 µM): 28.70%
- Inhibitory % ([2]; A-549, sample conc. 239.9 µM): 83.57%
- Viability % ([2]; A-549, sample conc. 239.9 µM): 16.43%
- Inhibitory % ([2]; A-549, sample conc. 479.8 µM): 92.15%
- Viability % ([2]; A-549, sample conc. 479.8 µM): 7.85%
- Inhibitory % ([2]; A-549, sample conc. 959.6 µM): 96.38%
- Viability % ([2]; A-549, sample conc. 959.6 µM): 3.62%
- SI = CC50/IC50 [2]: 0.72
- Inhibitory % ([3]; MRC-5, sample conc. 1.9 µM): 0%
- Viability % ([3]; MRC-5, sample conc. 1.9 µM): 100%
- Inhibitory % ([3]; MRC-5, sample conc. 3.8 µM): 0%
- Viability % ([3]; MRC-5, sample conc. 3.8 µM): 100%
- Inhibitory % ([3]; MRC-5, sample conc. 7.5 µM): 1.29%
- Viability % ([3]; MRC-5, sample conc. 7.5 µM): 98.71%
- Inhibitory % ([3]; MRC-5, sample conc. 15.0 µM): 7.13%
- Viability % ([3]; MRC-5, sample conc. 15.0 µM): 92.87%
- Inhibitory % ([3]; MRC-5, sample conc. 29.9 µM): 13.76%
- Viability % ([3]; MRC-5, sample conc. 29.9 µM): 86.24%
- Inhibitory % ([3]; MRC-5, sample conc. 60.0 µM): 32.82%
- Viability % ([3]; MRC-5, sample conc. 60.0 µM): 67.18%
- Inhibitory % ([3]; MRC-5, sample conc. 120.0 µM): 57.65%
- Viability % ([3]; MRC-5, sample conc. 120.0 µM): 42.35%
- Inhibitory % ([3]; MRC-5, sample conc. 239.9 µM): 72.02%
- Viability % ([3]; MRC-5, sample conc. 239.9 µM): 27.98%
- Inhibitory % ([3]; MRC-5, sample conc. 479.8 µM): 84.79%
- Viability % ([3]; MRC-5, sample conc. 479.8 µM): 15.21%
- Inhibitory % ([3]; MRC-5, sample conc. 959.6 µM): 94.26%
- Viability % ([3]; MRC-5, sample conc. 959.6 µM): 5.74%
- CC50 ([3]; MRC-5 cells, 24 h, MTT): 101 µM

Reference: article PMC9106035, “Synthesis, X-ray Structure and Biological Studies of New Self-Assembled Cu(II) Complexes Derived from s-Triazine Schiff Base Ligand” (Molecules, 2022)
